Key:
[1] = system: Enterotoxigenic Escherichia coli (ETEC); assay: Bacteriostatic circle test, ETEC; assay type: cell-based; details: bacteriostatic circle method; strain ETEC; DMSO negative control
Procedure: (§1) The compounds of the present invention have been tested for antibacterial activity, and a bacteriostatic circle method was used to determine the antibacterial activity.
(§2) Test strains and medium: Enteropathogenic Escherichia coli (EPEC), Enterotoxigenic Escherichia coli (ETEC), Enteroinvasive Escherichia coli (EIEC), Enterohemorrhagic Escherichia coli (EHEC); beef peptone medium.
(§3) Preparation of test strains: (1) test strains were placed in culture medium in test tubes in an incubator (bacteria: 37° C., 24 hours; fungi: 28° C., 48 hours), and stored at 0-4° C.; (2) the test strains were inoculated with a small loop in test tubes containing 9 mL sterile water, mixing well to make suspensions, and adjusting the concentration to 10^6-10^7 cfu·mL^−1. The suspensions were used for bacteriostatic circle test.
(§4) Antibacterial activity determination: solvent dimethyl sulfoxide (DMSO) was used as a negative control, the sizes of antibacterial ring diameters indicated the strength of the antibacterial activities.

[2] = system: Enterohemorrhagic Escherichia coli (EHEC); assay: Bacteriostatic circle test, EHEC; assay type: cell-based; details: bacteriostatic circle method; strain EHEC; DMSO negative control
Procedure: as §1, §2, §3, §4

[3] = system: Enteroinvasive Escherichia coli (EIEC); assay: Bacteriostatic circle test, EIEC; assay type: cell-based; details: bacteriostatic circle method; strain EIEC; DMSO negative control
Procedure: as §1, §2, §3, §4

[4] = system: all the four tested bacteria (EPEC, ETEC, EIEC, EHEC); assay: Bacteriostatic circle test, summary over all four tested bacteria; assay type: cell-based, Escherichia coli
Procedure: as §1, §2, §3, §4

[5] = system: Enteropathogenic Escherichia coli (EPEC); assay: Bacteriostatic circle test, EPEC; assay type: cell-based; details: bacteriostatic circle method; strain EPEC; DMSO negative control
Procedure: as §1, §2, §3, §4

For CC(=O)C1=C(C)OOc2[nH]c3ccccc3c21 [Compound 1, 1-(3-methyl-9H-[1,2]dioxino[3,4-b]indol-4-yl)ethanone], the “Circle Size” value [1] was 19 mm, the “Circle Size” value [2] was 23 mm and the “Circle Size” value [3] was 21 mm. The “antibacterial activities (result in words)” value (“antibacterial activities” below) [4] was “good antibacterial activities” and the “Circle Size” value [5] was 20 mm.

For CC(=O)C1=C(C)OOc2[nH]c3ccc(Cl)cc3c21 [Compound 2, 1-(6-chloro-3-methyl-9H-[1,2]dioxino[3,4-b]indol-4-yl)ethanone], the “Circle Size” value [1] was 15.5 mm, the “Circle Size” value [2] was 16.5 mm and the “Circle Size” value [3] was 17 mm. For the same compound, the “antibacterial activities” value [4] was “good antibacterial activities” and the “Circle Size” value [5] was 15 mm.

In the case of CC(=O)C1=C(C)OOc2[nH]c3ccc(C)cc3c21 [Compound 3, 1-(3,6-dimethyl-9H-[1,2]dioxino[3,4-b]indol-4-yl)ethanone], the “Circle Size” value [1] was 18 mm, the “Circle Size” value [2] was 17 mm and the “Circle Size” value [3] was 17 mm. The “antibacterial activities” value [4] was “good antibacterial activities” and the “Circle Size” value [5] was 17.5 mm.

O=C(C1=C(c2ccccc2)OOc2[nH]c3ccccc3c21)c1ccccc1 [Compound 4, phenyl(3-phenyl-9H-[1,2]dioxino[3,4-b]indol-4-yl)methanone] was tested, and the “Circle Size” value [1] was 11 mm, the “Circle Size” value [2] was 12.5 mm and the “Circle Size” value [3] was 11.5 mm. For the same compound, the “Circle Size” value [5] was 12 mm.

In the case of O=C(C1=C(c2ccccc2)OOc2[nH]c3ccc(Cl)cc3c21)c1ccccc1 [Compound 5, (6-chloro-3-phenyl-9H-[1,2]dioxino[3,4-b]indol-4-yl)(phenyl)methanone], the “Circle Size” value [1] was 13.5 mm, the “Circle Size” value [2] was 14.5 mm and the “Circle Size” value [3] was 14 mm. For the same compound, the “Circle Size” value [5] was 13 mm.

With Cc1ccc2[nH]c3c(c2c1)C(C(=O)c1ccccc1)=C(c1ccccc1)OO3 [Compound 6, (6-methyl-3-phenyl-9H-[1,2]dioxino[3,4-b]indol-4-yl)(phenyl)methanone] the “Circle Size” value [1] was 15.5 mm, the “Circle Size” value [2] was 16 mm and the “Circle Size” value [3] was 16 mm. For the same compound, the “Circle Size” value [5] was 15 mm.

With CC(=O)C1=C(C)OOc2[nH]c3ccc(F)cc3c21 [Compound 7, 1-(6-fluoro-3-methyl-9H-[1,2]dioxino[3,4-b]indol-4-yl)ethanone] the “Circle Size” value [1] was 17.5 mm, the “Circle Size” value [2] was 17 mm and the “Circle Size” value [3] was 16.5 mm. For the same compound, the “Circle Size” value [5] was 17 mm.

CC(=O)C1=C(C)OOc2[nH]c3cc(Cl)ccc3c21 [Compound 8, 1-(7-chloro-3-methyl-9H-[1,2]dioxino[3,4-b]indol-4-yl)ethanone] was tested, and the “Circle Size” value [1] was 14 mm, the “Circle Size” value [2] was 13 mm and the “Circle Size” value [3] was 13.5 mm. The “Circle Size” value [5] was 13 mm.

CC(=O)C1=C(C)OOc2[nH]c3c(F)cccc3c21 [Compound 9, 1-(8-fluoro-3-methyl-9H-[1,2]dioxino[3,4-b]indol-4-yl)ethanone] was tested, and the “Circle Size” value [1] was 15.5 mm, the “Circle Size” value [2] was 14.5 mm and the “Circle Size” value [3] was 14 mm. The “Circle Size” value [5] was 15 mm.

In the case of O=C(C1=C(c2ccccc2)OOc2[nH]c3ccc(F)cc3c21)c1ccccc1 [Compound 10, (6-fluoro-3-phenyl-9H-[1,2]dioxino[3,4-b]indol-4-yl)(phenyl)methanone], the “Circle Size” value [1] was 11 mm, the “Circle Size” value [2] was 10.5 mm and the “Circle Size” value [3] was 11.5 mm. For the same compound, the “Circle Size” value [5] was 10 mm.

O=C(C1=C(c2ccccc2)OOc2[nH]c3cc(Cl)ccc3c21)c1ccccc1 [Compound 11, (7-chloro-3-phenyl-9H-[1,2]dioxino[3,4-b]indol-4-yl)(phenyl)methanone] was tested, and the “Circle Size” value [1] was 12.5 mm, the “Circle Size” value [2] was 11.5 mm and the “Circle Size” value [3] was 11.5 mm. The “Circle Size” value [5] was 12 mm.

O=C(C1=C(c2ccccc2)OOc2[nH]c3c(F)cccc3c21)c1ccccc1 [Compound 12, (8-fluoro-3-phenyl-9H-[1,2]dioxino[3,4-b]indol-4-yl)(phenyl)methanon] was tested, and the “Circle Size” value [2] was 15 mm, the “Circle Size” value [3] was 14.5 mm and the “Circle Size” value [5] was 14 mm.
